Results taken from patent US7129271B2, “Compounds for pest control and methods for their use” (The United States of America as represented by the …, priority 2000, dated 2006).
In brackets after ≈: the same amount, converted by molar mass. Read-outs that look alike come from different tables or passages of the source.

What was measured:
X. cheopis adults = assay: Flea bioassay, treated vials (Example 9); format: in vivo
Experimental: Flea Colonies. Adult X. cheopis fleas (1–3 wk old) were obtained from a colony founded more than eight years ago using adults received from Tom Schwan, Rocky Mountain Laboratories, Hamilton, Mont. The area from which these original adult fleas were obtained, and the resulting colony, have no known histories of pesticide exposure.
(§1) Tick and Flea Bioassays. Concentrations of the compounds were prepared by 2-fold serial dilutions of a 0.5% (wt:vol) solution of the extracts in acetone. […] A control treated with acetone only was run with each series. Tick and flea susceptibility was evaluated using a modified disposable pipette method. See, Barnard, D. R., et al., J. Econ. Entomol.
(§2) The inner surface of 2-dram friction cap vials were treated with the compound/acetone solution, or acetone only as a control, and left to air-dry overnight. Three to 4 holes were made in the plastic cap to allow for air exchange. Nymphal ticks and adult fleas were then placed directly into the vials using forceps. Vials containing ticks or fleas were placed in desiccators for 24 h at 21° C. and 90% RH. Morbidity and mortality was recorded at 1, 2, 4, 8, and 24 h after initial exposure.

I. scapularis nymphs = assay: Tick bioassay, modified disposable pipette method, treated vials (Example 9); format: in vivo, Ixodes scapularis
Experimental: Tick Colonies. […] There was no known pesticide used at this location. Ticks were maintained at 21° C., 90% RH, and received a 16:8 h (light:dark) cycle as described in […]. Med. […] Tick and Flea Bioassays. […] A control treated with acetone only was run with each series. Tick and flea susceptibility was evaluated using a modified disposable pipette method. See, Barnard, D. R., et al., J. Econ. […] Three to 4 holes were made in the plastic cap to allow for air exchange. Nymphal ticks and adult fleas were then placed directly into the vials using forceps. Vials containing ticks or fleas were placed in desiccators for 24 h at 21° C. and 90% RH. […] For each time point, if ticks were incapable of movement, maintaining normal posture, leg coordination, ability to right themselves, or any signs of life, they were considered moribund or dead.

Ae. aegypti adults = assay: Mosquito bottle bioassay (Example 9); format: in vivo
Experimental: Mosquito Colonies. Aedes aegypti adult mosquitoes were obtained from an existing colony at the Centers for Disease Control and Prevention (CDC), Division of Vector-Borne Infectious Diseases (DVBID), Fort Collins, Colo. This colony has been maintained for over fifteen years with no known history of exposure to pesticides. Mosquitoes were reared at 28° C., 85% RH, and a 14:10 h (light:dark) cycle. Larvae were grown in de-ionized water and fed ground liver powder solution ad libitum. Fourth instars were removed and placed in emergence cages, and adults were fed a 2% sucrose solution until assayed. Adults were exposed to test products at 4–7 d after emergence.
(§3) Mosquit Bioassay. Adult mosquitoes were tested using the bottle bioassay method of Brogden, W. G., and McAllister, J. C., J. Am. Mosq. Control Assoc. 14:159–64 (1998), with minor modifications. Natural product extracts were two-fold serially diluted for a total of 8 concentrations ranging from 0.002% to 0.25% in 1.5 ml of acetone. Individual dilutions were added to 250 ml Wheaton glass bottles and capped. Bottles were manipulated to evenly coat all inner surfaces. The caps were removed and bottles were allowed to air-dry overnight. Once bottles were completely dry, 10–50 adult mosquitoes were aspirated into the bottles. Mosquitoes were held in the bottles for 24 h at 23° C. and 85% RH. Morbidity and mortality were recorded at 15, 30, 45, and 60 min and 24 hour intervals. One bottle for each replicate was treated with acetone only and served as a control. The dose-mortality data was evaluated with probit analysis, using the LdP Line software, to determine LC50 and LC90 values.

[1] = tested on: nymphal Ixodes scapularis; assay: Treated-vial biocidal screening, 2% acetone solutions (Example 2); format: in vivo
Experimental: (§4) Samples of the compounds listed below Were obtained from Dr. Karchesy, a co-inventor, and screened for biocidal activities against nymphal Ixodes scapularis. In this example, 2% acetone solutions (wt./vol.) of the compounds were applied to inner surfaces of 2-dram friction cap vials. Vials and caps were treated then allowed to dry for a minimum of 4 hours before placing 10 nymphs in each container. These same vials were used to challenge additional nymphs and adult I. scapularis ticks and adult Xenopsylla cheopis fleas through five weeks to observe any possible residual activity.
(§5) Numbers in parentheses refer to length of treatment in terms of hours (h) or weeks (wk). Data is presented in terms of number killed/number tested. For test periods longer than 24 hours, the treated vials were allowed to sit for the stated period after drying (72 h, 4 wk, or 5 wk) and each group of arthropods was added to the vials for the final 24 h of the test period.

[2] = tested on: adult I. scapularis ticks; assay: Treated-vial biocidal screening, residual challenge (Example 2); format: in vivo, Ixodes scapularis; conditions: treated vials sat 4 wk; arthropods added for final 24 h
Experimental: as §4, §5

[3] = tested on: adult Xenopsylla cheopis fleas; assay: as above; format: in vivo; conditions: treated vials sat 5 wk; arthropods added for final 24 h
Experimental: as §4, §5

Aedes aegypti adults = assay: Residual activity, treated bottles aged before loading (Example 9); format: in vivo
Experimental: as §3

Ixodes scapularis nymphs = assay: Residual activity, treated vials aged before loading (Example 9); format: in vivo
Experimental: as §1, with “acetone. The approximate toxicity of individual compounds was determined with a total of 8 doses ranging from 0.002% to 0.25%.” for “acetone.”, “Entomol. 74:466–69 (1981).” for “Entomol.”
as §2, with “Groups of 10 nymphal I. scapularis and X. cheopis fleas were used in all tests, resulting in a total of 5,240 nymphs and 4,860 fleas exposed to the compounds. The” for “The”

[4] = tested on: Xenopsylla cheopis adults; assay: as above; format: in vivo
Experimental: as §1, with “acetone. The approximate toxicity of individual compounds was determined with a total of 8 doses ranging from 0.002% to 0.25%.” for “acetone.”, “Entomol. 74:466–69 (1981).” for “Entomol.”
as §2, with “Groups of 10 nymphal I. scapularis and X. cheopis fleas were used in all tests, resulting in a total of 5,240 nymphs and 4,860 fleas exposed to the compounds. The” for “The”

[5] = tested on: ticks, fleas, and mosquitoes; assay: Residual activity, overall statements for ticks, fleas and mosquitoes (Example 9); conditions: 1 to 4 weeks after treatment
[6] = Xenopsylla cheopis, 24 h, 24 h exposure, 95% CI in parentheses, read-out: LC50
[7] = Xenopsylla cheopis, 24 h, 24 h exposure, 95% CI in parentheses, read-out: LC90
[8] = Ixodes scapularis, 24 h, 24 h exposure, 95% CI in parentheses, read-out: LC90
[9] = Aedes aegypti, 24 h, 24 h exposure, 95% CI in parentheses, read-out: LC50
[10] = Aedes aegypti, 24 h, 24 h exposure, 95% CI in parentheses, read-out: LC90 (the source's name)
[11] = 24 h exposure, 95% CI in parentheses
[12] = residual activity at 1 week after treatment
[13] = residual activity at 2 weeks after treatment
[14] = residual activity at 4 weeks after treatment

SMILES	LC50 (X. cheopis adults; [6])	LC90 (X. cheopis adults; [7])	LC50 (I. scapularis nymphs; Ixodes scapularis, 24 h)	LC90 (I. scapularis nymphs; [8])	LC50 (Ae. aegypti adults; [9])	EC90 (Ae. aegypti adults; [10])	LC50 (X. cheopis adults; [11])	LC50 (I. scapularis nymphs; [11])	LC50 (Aedes aegypti adults; [12])	LC90 (Aedes aegypti adults; [12])	LC50 (Aedes aegypti adults; [13])	LC90 (Aedes aegypti adults; [13])	LC50 (Ixodes scapularis nymphs; [12])	LC90 (Ixodes scapularis nymphs; [12])	LC50 [4, 12]	LC90 [4, 12]	residual activity (in words) [5]	other results
C=C(C)C1CCC23OC2C(=O)C[C@@H](C)[C@]3(C)C1 (stereo partly drawn) [Compound 17, nootkatone-1,10-epoxide]	170 µg/mL (≈ 725 µM)	590 µg/mL (≈ 2520 µM)	200 µg/mL (≈ 853 µM)	550 µg/mL (≈ 2350 µM)	2230 µg/mL (≈ 9520 µM)	20000 µg/mL (≈ 85400 µM)	–	–	–	–	–	–	–	–	–	–	–	–
C[C@@H]1CC(=O)C2OC23CCC(C2(C)CO2)C[C@@]13C (stereo partly drawn) [Compound 18, nootkatone-1,10-11,12-diepoxide]	640 µg/mL (≈ 2560 µM)	4840 µg/mL (≈ 19300 µM)	610 µg/mL (≈ 2440 µM)	2450 µg/mL (≈ 9790 µM)	590 µg/mL (≈ 2360 µM)	1140 µg/mL (≈ 4550 µM)	–	–	–	–	–	–	–	–	–	–	–	–
Cc1ccc(C(C)C)cc1O [Compound 4, Carvacrol]	–	–	68 µg/mL (≈ 453 µM)	–	–	–	–	–	–	–	–	–	–	–	–	–	–	LC50 (X. cheopis adults; Xenopsylla cheopis, 24 h): 59 µg/mL (≈ 393 µM); LC90 (X. cheopis adults; Xenopsylla cheopis, 24 h, read-out: LC90): 140 µg/mL (≈ 932 µM); LC90 (I. scapularis nymphs; Ixodes scapularis, 24 h, read-out: LC90): 140 µg/mL (≈ 932 µM); LC50 (Ae. aegypti adults; Aedes aegypti, 24 h): 51 µg/mL (≈ 339 µM); EC90 (Ae. aegypti adults; Aedes aegypti, 24 h, read-out: LC90): 140 µg/mL (≈ 932 µM)
C=C(C)[C@@H]1CCC2=CCC[C@@H](C)[C@]2(C)C1 [Compound 5, Valencene]	–	–	–	–	–	–	0.041 (0.034–0.049) percent concentration, wt:vol	0.598 percent concentration, wt:vol	–	–	–	–	–	–	–	–	–	I. scapularis nymphs (24 h), number killed/number tested ([1]; 2% acetone solution (wt./vol.) dried in vials, 24 h): 10/10; I. scapularis nymphs (72 h), number killed/number tested ([1]; treated vials sat 72 h, arthropods added for final 24 h): 0/5; LC90 (X. cheopis adults; [11]): 0.063 (0.052–0.093) percent concentration, wt:vol; LC90 (I. scapularis nymphs; [11]): 44.837 percent concentration, wt:vol; I. scapularis adults (4 wk), number killed/number tested [2]: 0/5; LC50 (Ae. aegypti adults; [11]): 0.015 (0.008–0.029) percent concentration, wt:vol; LC90 (Ae. aegypti adults; [11]): 0.037 (0.031–0.162) percent concentration, wt:vol; X. cheopis adults (5 wk), number killed/number tested [3]: 0/5
C=C(C)[C@@H]1CCC2=CC(=O)C[C@@H](C)[C@]2(C)C1 [Compound 8, Nootkatone]	–	–	–	–	–	–	0.0029 (0.002–0.0038) percent concentration, wt:vol	0.0061 (0.005–0.0072) percent concentration, wt:vol	0.0065 percent concentration, wt:vol	0.014 percent concentration, wt:vol	0.0067 (0.0058– percent concentration, wt:vol	0.012 (0.01–0.015) percent concentration, wt:vol	0.025 percent concentration, wt:vol	0.071 percent concentration, wt:vol	0.02 (0.016–0.026) percent concentration, wt:vol	0.053 (0.04–0.082) percent concentration, wt:vol	considerable biological activity	LC50 (X. cheopis adults; 24 h exposure, 95% CI in parentheses, listed as compound 8): 0.0029 percent concentration, wt:vol; LC50 (Aedes aegypti adults; [14]): 0.02 percent concentration, wt:vol; LC90 (Aedes aegypti adults; [14]): 0.29 percent concentration, wt:vol; LC50 (Ixodes scapularis nymphs; [13]): 0.019 (0.014–0.024) percent concentration, wt:vol; LC90 (Ixodes scapularis nymphs; [13]): 0.056 (0.04–0.094) percent concentration, wt:vol; LC50 (Ixodes scapularis nymphs; [14]): 0.25 percent concentration, wt:vol; LC90 (Ixodes scapularis nymphs; [14]): 0.71 percent concentration, wt:vol; LC50 [4, 13]: 0.018 (0.013–0.024) percent concentration, wt:vol; LC90 [4, 13]: 0.081 (0.054–0.156) percent concentration, wt:vol; LC50 [4, 14]: 0.035 (0.026–0.051) percent concentration, wt:vol; LC90 [4, 14]: 0.161 (0.098–0.387) percent concentration, wt:vol
C=C(C=O)C1CCC2=CCC[C@@H](C)[C@]2(C)C1 (stereo partly drawn) [Compound 15, valencene-13-aldehyde]	49 µg/mL (≈ 224 µM)	85 µg/mL (≈ 389 µM)	59 µg/mL (≈ 270 µM)	170 µg/mL (≈ 779 µM)	24 µg/mL (≈ 110 µM)	34 µg/mL (≈ 156 µM)	–	–	0.011 (0.0095–0.013) percent concentration, wt:vol	0.027 (0.022–0.037) percent concentration, wt:vol	0.014 (0.0074–0.025) percent concentration, wt:vol	0.037 (0.029–0.127) percent concentration, wt:vol	0.026 (0.02–0.033) percent concentration, wt:vol	0.072 (0.052–0.121) percent concentration, wt:vol	0.059 percent concentration, wt:vol	0.148 percent concentration, wt:vol	considerable biological activity	–
C=C(C)[C@@H]1CCC2=CC(=O)C[C@@H](C)[C@]2(C)C1 [Compound 9, Nootkatone]	–	–	–	–	–	–	0.0066 (0.0046–0.0086) percent concentration, wt:vol	0.0033 (0.0027–0.004) percent concentration, wt:vol	0.0089 (0.0077–0.01) percent concentration, wt:vol	0.018 (0.015–0.023) percent concentration, wt:vol	0.0042 (0.0036– percent concentration, wt:vol	0.0088 (0.0074–0.011) percent concentration, wt:vol	0.0084 (0.005–0.013) percent concentration, wt:vol	0.08 (0.045–0.22) percent concentration, wt:vol	0.043 percent concentration, wt:vol	0.259 percent concentration, wt:vol	considerable biological activity	LC50 (Aedes aegypti adults; [14]): 0.018 percent concentration, wt:vol; LC90 (Aedes aegypti adults; [14]): 0.036 percent concentration, wt:vol; LC50 (Ixodes scapularis nymphs; [13]): 0.0089 (0.0068–0.012) percent concentration, wt:vol; LC90 (Ixodes scapularis nymphs; [13]): 0.027 (0.02–0.045) percent concentration, wt:vol; LC50 [4, 13]: 0.027 percent concentration, wt:vol; LC90 [4, 13]: 0.085 percent concentration, wt:vol; LC90 [4, 14]: 0.111 (0.08–0.193) percent concentration, wt:vol; LC50 (Ae. aegypti adults; [11]): 0.0075 percent concentration, wt:vol
